The target in one assay is BACE 1 (Homo sapiens, UniProt P05067). Put plainly: Western blot of BACE 1 cleavage of APP variant. The format is biochemical. The settings on record: bacterially expressed APP variant, BACE 1 protein, 1 h at 37° C.; read-out: IC50, inhibition of BACE cleavage of APP (densitometric quantitation of Western blot). How it is done: A bacterially expressed APP variant containing an enhanced BACE cleavage sequence was incubated with Example 2 and BACE 1 protein for 1 h at 37° C. to conduct a Western blot analysis. The reaction was run on a gel and blotted. The BACE-specific cleavage product was detected using an antibody specifically recognizing the N-terminal product arising after BACE cleavage.
Sequence of BACE 1 (P05067 whole entry K670N/M671F/D672E/A673V, form open): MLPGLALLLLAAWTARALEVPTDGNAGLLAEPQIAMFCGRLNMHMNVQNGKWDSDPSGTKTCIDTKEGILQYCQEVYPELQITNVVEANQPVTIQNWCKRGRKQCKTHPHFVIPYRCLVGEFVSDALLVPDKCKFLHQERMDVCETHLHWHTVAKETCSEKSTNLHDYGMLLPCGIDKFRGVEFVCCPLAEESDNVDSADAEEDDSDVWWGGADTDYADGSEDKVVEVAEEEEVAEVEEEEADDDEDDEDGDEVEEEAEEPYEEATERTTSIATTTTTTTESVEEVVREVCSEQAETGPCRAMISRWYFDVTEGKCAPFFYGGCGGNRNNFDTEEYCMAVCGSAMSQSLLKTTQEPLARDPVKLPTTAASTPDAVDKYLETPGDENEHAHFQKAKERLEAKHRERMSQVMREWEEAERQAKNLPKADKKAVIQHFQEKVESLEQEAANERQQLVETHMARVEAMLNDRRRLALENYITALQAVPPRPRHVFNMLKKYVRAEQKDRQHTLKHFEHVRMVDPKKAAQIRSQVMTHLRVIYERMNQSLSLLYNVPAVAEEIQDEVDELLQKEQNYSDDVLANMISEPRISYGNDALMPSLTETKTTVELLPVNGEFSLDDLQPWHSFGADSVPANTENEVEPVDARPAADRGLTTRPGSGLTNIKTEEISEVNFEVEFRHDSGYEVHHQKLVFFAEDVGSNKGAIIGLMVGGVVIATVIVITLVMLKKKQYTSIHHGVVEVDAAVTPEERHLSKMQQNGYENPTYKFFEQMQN
FIG. 2(A) depicts the Western blot.
(In general: Immunoblotting shows a protein as a band on a membrane.)

In assay [1] the test system is BACE2. Kind of assay: BACE2 cleavage of EV amyloid / Aβ (mass spectrometric analysis). The format is biochemical. The settings on record: 100 μM; result in words. How it is done:
The effect of inhibition of BACE 2 cleavage of EV amyloid was assayed using a protocol described in Shi et al, 2003, J. Biol. Chem., 278:21286-21294. The results of assaying Examples 1-4 at 100 μM are shown below: […]

The next assay deals with BACE1. Kind of assay: BACE cleavage of the full length APP. Type of assay: biochemical. Conditions: result in words.
The test system of a further assay is APP variant. Put plainly: Antibody-masking ALPHA assay on biotinylated APP variant (Examples 5A/5B). Type of assay: binding. The settings on record: antibody to C-terminal region of Aβ (5A) and LN27 to N-terminal region of APP (5B); pH 4.5, 37° C., 1 hour. How it is done: A biotinylated APP variant (400 nM) was combined with Examples 1-3 under assay conditions (50 mM sodium acetate, pH 4.5; 1x Protease Inhibitor cocktail (Roche cat # 1836153); 100 μg/mL bovine serum albumin, 0.2% CHAPS). Incubations with vehicle, including DMSO (compound diluent), and incubations lacking the APP variant were carried out as controls for each experiment. Each mixture was incubated at 37° C. for 1 hour.
Thereafter, 70 μL of each incubation mixture was placed in its own well of a 96-well plate. 5 μL of 1 M Tris-Cl, pH 8.0 was added to each well to neutralize any binding reaction.
In Example 5A, a mixture of ALPHA beads was prepared from
(1) 20 μg/mL streptavidin donor beads;
(2) 20 μg/mL Protein A acceptor beads (from AlphaScreen General IgG (Protein A) Detection Kit Perkin Elmer Life Sciences; 10,000 pts (Part Number 6760617M)), containing 150 ng/mL of a rabbit polyclonal antibody directed against the C-terminal region of Aβ; and
(3) 0.1 % bovine serum albumin.
The beads were combined in a phosphate buffered saline.
In Example 5B, a mixture of ALPHA beads was prepared from […]
The following day, the plates were read using ALPHAQUEST, to measure the degree of binding of the antibodies. […]

In assay [2] the target is T1, BACE2 (Homo sapiens, UniProt P05067, A673V/D672E/K670N/M671F).
T1 construct: IC50, BACE2 cleavage of APP at the beta-secretase cleavage site; other: MBP-biotinylated APP fusion protein with NFEV s; activity against BACE2 cleavage of APP at the beta-secretase position; other: result in words; biotin label
T1 sequence (P05067 whole entry K670N/M671F/D672E/A673V, the tested form may be a part): as the sequence (P05067 whole entry K670N/M671F/D672E/A673V, form open) above
Put plainly: BACE2 cleavage of APP at the beta-secretase cleavage site (ALPHA). The format is biochemical. The settings on record: MBP-biotinylated APP fusion protein with NFEV site, pH 4.5, 30 minutes. Here is the method:
The effect of Examples 1-4 on cleavage of APP at the beta-secretase cleavage site was assayed as follows:
• 25 μL 0.2 M Sodium Acetate, pH 4.5 • 10 μL 10× protease inhibitor cocktail (Roche, cat # 1836153) • 10 μL Bovine Serum Albumin (1 mg/mL solution) • 4 μL 5% CHAPS • 1 μL EDTA (150 mM, pH 4.5) • 2 μL DF • 4 μL MBP(Maltose binding protein)—biotininylated APP fusion protein containing the NFEV BACE cleavage site (bacterially expressed, 10 μM solution) • 1 μL DMSO or compound dissolved in DMSO • 2 μL BACE2 (CHO cell expressed protein, 250 nM) • 41 μL distilled water The reactions were incubated at 37° C. for 30 minutes, and were then quenched with 4 μL 1 M TrisHCl, pH 8.0. Detection of MBP Biotin APP(NF) Cleavage Product using ALPHA ALPHA Assay Mix was Prepared as Follows: • 20 μL Streptavidin Donor Beads (from AlphaScreen General IgG (Protein A) Detection Kit Perkin Elmer Life Sciences); 10,000 pts (Part Number 6760617M) • 20 μL Protein A Acceptor beads (from AlphaScreen General IgG (Protein A) Detection Kit Perkin Elmer Life Sciences); 10,000 pts (Part Number 6760617M) • 3.7 μL Affinity purified anti-NF antibody (203 μg/mL) (described in WO 02/094985) • 4.5 mL 0.1% BSA in PBS • 4 μL of quenched reaction mixture was combined with 46 μL of the assay mix. The reactions were incubated at room temperature overnight and read using the ALPHAQuest plate reader.

The target of the next assay is APP (Homo sapiens, UniProt P05067). Kind of assay: Biacore S51 binding to immobilized biotinylated APP. The settings on record: Biacore S51, SA-coated sensor chip. How it is done: (§1) The compounds of formula (I) are believed to inhibit APP cleavage function by binding APP. The binding of the compound of Example 1 to APP was assayed by BiacoreS51. Biotinylated APP and biotinylated sAPPβ were immobilized to a SA-coated sensor chip. A titration of Example 1 was injected and the binding response for each concentration of Example 1 was obtained for both proteins. FIG. 5 is a graph of response units for […] (◯) or the BACE 1 inhibitor Statine-Val ( ? ) binding to APP.
Sequence of APP (P05067 18-770): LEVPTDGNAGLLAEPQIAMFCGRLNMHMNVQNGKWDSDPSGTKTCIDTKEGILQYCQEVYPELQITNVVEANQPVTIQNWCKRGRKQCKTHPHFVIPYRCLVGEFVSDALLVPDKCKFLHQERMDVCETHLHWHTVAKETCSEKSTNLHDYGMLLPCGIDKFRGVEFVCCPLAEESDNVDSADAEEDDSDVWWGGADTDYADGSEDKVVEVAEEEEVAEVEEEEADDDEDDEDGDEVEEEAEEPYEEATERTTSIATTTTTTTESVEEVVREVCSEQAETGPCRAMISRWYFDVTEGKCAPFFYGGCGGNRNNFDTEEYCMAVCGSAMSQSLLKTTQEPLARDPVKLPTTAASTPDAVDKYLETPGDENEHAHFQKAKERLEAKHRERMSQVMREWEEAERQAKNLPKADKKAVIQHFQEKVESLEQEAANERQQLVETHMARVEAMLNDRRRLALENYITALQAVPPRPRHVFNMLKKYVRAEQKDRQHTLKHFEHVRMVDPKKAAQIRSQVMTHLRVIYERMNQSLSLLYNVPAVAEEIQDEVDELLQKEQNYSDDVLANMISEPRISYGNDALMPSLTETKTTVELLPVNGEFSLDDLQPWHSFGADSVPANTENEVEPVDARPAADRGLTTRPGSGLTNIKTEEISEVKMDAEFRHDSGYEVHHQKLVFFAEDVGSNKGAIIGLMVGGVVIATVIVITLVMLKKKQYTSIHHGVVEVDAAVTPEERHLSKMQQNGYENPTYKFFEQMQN

For assay [3], the system named is H4 neuroglioma cells expressing CTF99. Put plainly: Secreted Aβ42 and Aβ40 in H4 neuroglioma cells expressing CTF99 (ECL). Conditions: 20 h treatment, conditioned media, FIG. 4. Type of assay: cell-based. How it is done: The compound of Example 1 was titrated into H4 neuroglioma cells expressing CTF99. The cells were treated with the compound of Example 1 for 20 h and conditioned media was harvested.

The target in the next assay is T2, sAPPβ (Homo sapiens, UniProt P05067).
T2 construct: Biotinylated APP and biotinylated sAPPβ were immobilized to a SA-coated sensor chip
T2 sequence (P05067 18-671 limits assumed): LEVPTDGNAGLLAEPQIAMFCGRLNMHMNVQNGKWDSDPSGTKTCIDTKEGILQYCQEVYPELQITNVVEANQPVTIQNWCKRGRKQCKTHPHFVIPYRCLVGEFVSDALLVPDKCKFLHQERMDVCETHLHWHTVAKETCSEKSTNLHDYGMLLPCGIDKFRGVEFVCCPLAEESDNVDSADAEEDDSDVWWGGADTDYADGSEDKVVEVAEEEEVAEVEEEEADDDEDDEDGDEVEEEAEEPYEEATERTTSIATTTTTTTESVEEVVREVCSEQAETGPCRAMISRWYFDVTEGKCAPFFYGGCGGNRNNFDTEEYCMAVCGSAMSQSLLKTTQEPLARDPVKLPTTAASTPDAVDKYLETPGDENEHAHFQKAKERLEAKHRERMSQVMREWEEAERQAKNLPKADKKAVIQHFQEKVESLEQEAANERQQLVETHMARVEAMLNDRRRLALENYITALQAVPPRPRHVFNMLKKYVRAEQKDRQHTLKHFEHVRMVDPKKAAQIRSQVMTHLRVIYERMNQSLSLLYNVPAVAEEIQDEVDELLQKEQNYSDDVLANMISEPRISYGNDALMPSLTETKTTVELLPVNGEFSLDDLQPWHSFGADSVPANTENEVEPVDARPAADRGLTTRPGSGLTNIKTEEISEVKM
Kind of assay: Biacore S51 binding to immobilized biotinylated sAPPβ. The settings on record: Biacore S51, SA-coated sensor chip. How it is done: as §1
For orientation: In SPR one partner is held on a chip, and binding of the other changes the refractive index at the surface.

One may read the IC50 as the concentration at which inhibition is half-maximal.

For the compound `O=C(O)COc1cc2c(cc1CCCOc1ccccc1Cl)OC(CCc1ccccc1)C2` (centres unmarked) [Example 2, {[6-[3-(2chlorophenoxy)propyl)-2-(2-phenylethyl)-2,3-dihydro-1-benzofuran-5-yl]oxy} acetic], the IC50 at BACE 1 was found to be 11 µM; at BACE2 [2], 4 µM. In addition, the “effect on BACE2 cleavage at positions 19 and 20” value in the assay on BACE2 [1] is “substantially enhanced cleavage at positions 19 and 20”. Besides, in the assay on BACE1, the “inhibition of BACE (BACE1) cleavage/processing of full length APP” value is given as “inhibit both BACE processing of APP”. In the assay on APP variant, the “interaction with the APP variant near the antibody binding sites” value is listed as “interacted with the APP variant within its Aβ domain, proximal to the C-terminal binding site”.

Regarding `O=C(O)COc1cc2c(cc1CCCOc1ccccc1)OC(CCc1ccccc1)C2` (centres unmarked) [Example 1, {[6-(3-phenoxypropyl)-2-(2-phenylethyl)-2,3-dihydro-1-benzofuran-5-yl]oxy} acetic acid], the “binding to APP” value on APP was “binds APP”. The “inhibition of BACE (BACE1) cleavage/processing of full length APP” value in the assay with BACE1 is “inhibit both BACE processing of APP”. Moreover, the “interaction with the APP variant near the antibody binding sites” value in the assay on APP variant is “interacted with the APP variant within its Aβ domain, proximal to the C-terminal binding site”. Moreover, in assay [3], the “production of Aβ42 relative to Aβ40” value is “decrease the production of Aβ42 relative to the production of Aβ40”. On BACE2 [2], half-maximal inhibition (IC50) required 9 µM. On sAPPβ, the “binding to sAPPβ” value is recorded as “does not bind sAPPβ”.

The values are drawn from patent US20070202547A1, “Methods For Detecting Substances Which Bind To The Amyloid Precursor Protein Or Beta Amyloid Fragments, And Binding Compounds” (priority 2004, published 2007).
